Measured values from US10370425B2, “Peptide antagonists of the calcitonin CGRP family of peptide hormones and their use” (priority 2012, dated 2019).
Like-named read-outs stand apart in the source and are kept apart here. Positions of bridges follow the written chain, without caps; N, C: chain ends. Residues, ends and D or L forms follow the SMILES beside them. No end group written: not given here.

Target: T1, amylin receptor, AMY1, a CT (calcitonin) receptor/RAMP1 (receptor-activity modifying protein) complex (Homo sapiens, UniProt O60894+P30988)
T1 construct: host or cells: CHO-K1/AMY1/Gα15
T1 sequence (P30988 25-474): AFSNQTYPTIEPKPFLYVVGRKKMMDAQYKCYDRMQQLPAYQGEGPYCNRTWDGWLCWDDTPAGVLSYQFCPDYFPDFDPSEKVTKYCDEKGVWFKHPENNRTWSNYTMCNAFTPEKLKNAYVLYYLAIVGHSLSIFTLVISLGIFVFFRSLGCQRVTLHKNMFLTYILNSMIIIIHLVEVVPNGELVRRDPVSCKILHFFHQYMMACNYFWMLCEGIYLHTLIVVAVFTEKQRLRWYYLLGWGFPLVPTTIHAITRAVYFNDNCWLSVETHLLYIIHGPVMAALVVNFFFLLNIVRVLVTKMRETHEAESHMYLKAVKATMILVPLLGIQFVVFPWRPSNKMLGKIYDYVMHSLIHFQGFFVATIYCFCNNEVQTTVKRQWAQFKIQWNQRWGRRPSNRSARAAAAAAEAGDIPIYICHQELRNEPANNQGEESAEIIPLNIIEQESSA
T1 sequence (O60894 27-148): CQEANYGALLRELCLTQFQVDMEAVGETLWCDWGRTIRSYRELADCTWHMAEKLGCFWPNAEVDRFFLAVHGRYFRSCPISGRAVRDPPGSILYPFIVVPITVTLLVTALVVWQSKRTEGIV
Experiment: Calcium flux assay (FLIPR Calcium 4) of inhibition of α-CGRP stimulation in CHO-K1/AMY1/Gα15 cells
Format: cell-based
Details: for inhibition at 1 µM: at maximal test concentration (series starts with 1 μM), CHO-K1/AMY1/Gα15 cells stimulated with 32 nM (EC80) α-CGRP, n = 2, read-out: % Inhibition @ Maximal concentration (Mean +/− SD, n = 2)
Method: Using a calcium flux assay, the dose-dependent inhibitory response of peptide antagonists of the present invention on an amylin receptor, AMY1, a CT (calcitonin) receptor/RAMP1 (receptor-activity modifying protein) complex was determined. The recombinant cell line CHO-K1/AMY1/Gα15 (GenScript, Piscataway, N.J., Catalog No. M00475) was employed in the assay. Peptide antagonist activities were tested, in duplicate, at five different concentrations, starting with 1 μM and serially diluted five-fold, in DMSO. AC187 (SEQ ID NO: 55), a known amylin receptor antagonist (available for example from Tocris Bioscience, Minneapolis, Minn., Catalog No. 3419) was used as a positive control in the assays, and human α-CGRP, a known amylin receptor agonist (SEQ ID NO:56) , (available for example from Tocris Bioscience, Minneapolis, Minn., Catalog No. 3012) was used as a positive control in the assays. The FLIPR® Calcium 4 Assay Kit (Molecular Devices, Sunnyvale, Calif.) was used.
Human α-CGRP having the amino acid sequence, NH2-[…]-NH2 (SEQ ID NO:56) and AC187 having the sequence […] (SEQ ID NO: 55) were employed as negative and positive controls, respectively. Stock solutions were further diluted in HBSS-HEPES buffer to make 5×final control solutions.
CHO-K1/AMY1/Gα15 cells were seeded in a 384-well black wall, clear bottom plate at a density of 20,000 cells/well in 20 μL of growth medium 20 hours prior to the day of the experiment and maintained at 37° C./5% CO2.
Per the assay kit protocol, dye-loading solution (at 2×final concentration) was added into the assay plate, 20 μL per well. Compound solution (at 5 ×final concentration) was added into the assay plate, 10 uL per well. The assay plate was placed into a 37° C. incubator for 1 hour, then left for 15 min at RT. The agonist plate (at 5×EC80 concentration) was placed in Source 2. The total reading time was 120 sec. The agonist was added after 20 seconds reading of the baseline and the fluorescence signal was captured for another 100 seconds (21 s to 120 s).
In screening, cells stimulated with assay buffer were chosen as the background; cells stimulated with agonist (at […] concentration) were chosen as the negative control.
Data were recorded by ScreenWorks (version 3.1) as FMD files and stored on the GenScript computer network for off-line analysis. Data acquisition and analyses was performed using ScreenWorks (version 3.1) program and exported to Excel. The average value of 20 (1 s to 20 s) seconds reading was calculated as the baseline reading and the relative fluorescent units (ΔRFU) intensity values were calculated with the maximal fluorescent units (21 s to 120 s) subtracting the average value of baseline reading.
The IC50 value of AC187 was 8 μM. The inhibitory activity of the tested peptide antagonists was normalized with the negative control (AC187) and reported as % Inhibition, calculated from the following equation: % Inhibition=(ΔRFUcompound−ΔRFUBackground)/(ΔRFUNegative control−ΔRFUBackground) * 100% Inhibition was then plotted along the Y-axis, with the test concentrations as indicated on the X-axis. The peptides were tested at indicated concentrations and stimulated with 32 nM (EC80) α-CGRP (Mean +/− SD, n=2).

Row | Molecule | inhibition at 1 µM [%] | IC50 (CHO-K1/AMY1/Gα15 calcium flux, read-out: IC50 value) [nM] | IC50 (positive control, CHO-K1/AMY1/Gα15 cells stimulated with α-CGRP, read-out: IC50 nM (assay positive control)) [nM]
1 | CC(C)C[C@H](NC(=O)[C@H](CCCNC(=N)N)NC(=O)CNC(=O)[C@H](CC(C)C)NC(=O)[C@@H](NC(=O)[C@@H]1CSSC[C@H](NC(=O)[C@H](C)N)C(=O)N[C@@H](CC(N)=O)C(=O)N[C@@H](CC(C)C)C(=O)N[C@@H](CO)C(=O)N[C@@H](C(C)C)C(=O)N1)C(C)C)C(=O)N[C@@H](CO)C(=O)N[C@@H](CCC(N)=O)C(=O)N[C@@H](CCC(=O)O)C(=O)N[C@@H](CC(C)C)C(=O)N[C@@H](Cc1c[nH]cn1)C(=O)N[C@@H](CCCNC(=N)N)C(=O)N[C@@H](CC(C)C)C(=O)N[C@@H](CCC(N)=O)C(=O)N[C@H](C(=O)N[C@@H](Cc1ccc(O)cc1)C(=O)N1CCC[C@H]1C(=O)N[C@@H](CCCNC(=N)N)C(=O)N[C@H](C(=O)N[C@@H](CC(N)=O)C(=O)N[C@H](C(=O)NCC(=O)N[C@@H](CO)C(=O)N[C@@H](CCCCN)C(=O)N[C@@H](C)C(=O)N[C@@H](Cc1ccccc1)C(N)=O)C(C)C)[C@@H](C)O)[C@@H](C)O [compound 11] (H-ACNLSVCVLGRLSQELHRLQTYPRTNVGSKAF-NH2; disulfide 2-7 (inferred)) | 96.5 | – | –
2 | VLGKLSQELHKLQTYPRTNTGSNTY [AC187, reference compound] | – | 8000 | 8150
3 | CC(C)C[C@H](NC(=O)[C@H](CCCNC(=N)N)NC(=O)CNC(=O)[C@H](CC(C)C)NC(=O)[C@@H](NC(=O)[C@@H]1CSSC[C@H](NC(=O)[C@H](C)N)C(=O)N[C@@H](CC(N)=O)C(=O)N[C@@H](CC(C)C)C(=O)N[C@@H](CO)C(=O)N[C@@H](C)C(=O)N1)C(C)C)C(=O)N[C@@H](CO)C(=O)N[C@@H](CCC(N)=O)C(=O)N[C@@H](CCC(=O)O)C(=O)N[C@@H](CC(C)C)C(=O)N[C@@H](Cc1c[nH]cn1)C(=O)N[C@@H](CCCNC(=N)N)C(=O)N[C@@H](CC(C)C)C(=O)N[C@@H](CCC(N)=O)C(=O)N[C@H](C(=O)N[C@@H](Cc1ccc(O)cc1)C(=O)N1CCC[C@H]1C(=O)N[C@@H](CCCNC(=N)N)C(=O)N[C@H](C(=O)N[C@@H](CC(N)=O)C(=O)N[C@H](C(=O)NCC(=O)N[C@@H](CO)C(=O)N[C@@H](CCCCN)C(=O)N[C@@H](C)C(=O)N[C@@H](Cc1ccccc1)C(N)=O)C(C)C)[C@@H](C)O)[C@@H](C)O [compound 7] (H-ACNLSACVLGRLSQELHRLQTYPRTNVGSKAF-NH2; disulfide 2-7 (inferred)) | 96 | – | –
4 | CC(C)C[C@H](NC(=O)[C@H](CCCNC(=N)N)NC(=O)CNC(=O)[C@H](CC(C)C)NC(=O)[C@@H](NC(=O)[C@@H]1CSSC[C@H](NC(=O)[C@H](C)N)C(=O)N[C@@H](CC(N)=O)C(=O)N[C@@H](CC(C)C)C(=O)N[C@@H](CO)C(=O)N[C@@H](C)C(=O)N1)C(C)C)C(=O)N[C@@H](CO)C(=O)N[C@@H](CCC(N)=O)C(=O)N[C@@H](CCC(=O)O)C(=O)N[C@@H](CC(C)C)C(=O)N[C@@H](Cc1c[nH]cn1)C(=O)N[C@@H](CCCNC(=N)N)C(=O)N[C@@H](CC(C)C)C(=O)N[C@@H](CCC(N)=O)C(=O)N[C@H](C(=O)N[C@@H](Cc1ccc(O)cc1)C(=O)N1CCC[C@H]1C(=O)N[C@H](C(=O)N[C@@H](CC(N)=O)C(=O)N[C@H](C(=O)NCC(=O)N[C@@H](CO)C(=O)NCC(=O)N[C@H](C(=O)N1CCC[C@H]1C(N)=O)[C@@H](C)O)[C@@H](C)O)[C@@H](C)O)[C@@H](C)O [compound 13] (H-ACNLSACVLGRLSQELHRLQTYPTNTGSGTP-NH2; disulfide 2-7 (inferred)) | 95.8 | – | –
5 | CC(C)C[C@H](NC(=O)[C@H](CCCNC(=N)N)NC(=O)CNC(=O)[C@H](CC(C)C)NC(=O)[C@@H](NC(=O)[C@@H]1CSSC[C@H](N)C(=O)N[C@@H](CO)C(=O)N[C@@H](CC(N)=O)C(=O)N[C@@H]([C@@H](C)O)C(=O)N[C@@H](C)C(=O)N[C@@H](C(C)C)C(=O)N1)C(C)C)C(=O)N[C@@H](CO)C(=O)N[C@@H](CCC(N)=O)C(=O)N[C@@H](CCC(=O)O)C(=O)N[C@@H](CC(C)C)C(=O)N[C@@H](Cc1c[nH]cn1)C(=O)N[C@@H](CCCNC(=N)N)C(=O)N[C@@H](CC(C)C)C(=O)N[C@@H](CCC(N)=O)C(=O)N[C@H](C(=O)N[C@@H](Cc1ccc(O)cc1)C(=O)N1CCC[C@H]1C(=O)N[C@@H](CCCNC(=N)N)C(=O)N[C@H](C(=O)N[C@@H](CC(N)=O)C(=O)N[C@H](C(=O)NCC(=O)N[C@@H](CO)C(=O)N[C@@H](CCCCN)C(=O)N[C@@H](C)C(=O)N[C@@H](Cc1ccccc1)C(N)=O)C(C)C)[C@@H](C)O)[C@@H](C)O [compound 12] (H-CSNTAVCVLGRLSQELHRLQTYPRTNVGSKAF-NH2; disulfide 1-7 (inferred)) | 96.1 | – | –
6 | CC(C)C[C@H](NC(=O)[C@H](CCCNC(=N)N)NC(=O)CNC(=O)[C@H](CC(C)C)NC(=O)[C@@H](NC(=O)[C@@H]1CSSC[C@H](NC(=O)[C@H](C)N)C(=O)N[C@@H](CCCNC(=N)N)C(=O)N[C@@H](Cc2ccccc2)C(=O)NCC(=O)N[C@@H](C)C(=O)N1)C(C)C)C(=O)N[C@@H](CO)C(=O)N[C@@H](CCC(N)=O)C(=O)N[C@@H](CCC(=O)O)C(=O)N[C@@H](CC(C)C)C(=O)N[C@@H](Cc1c[nH]cn1)C(=O)N[C@@H](CCCNC(=N)N)C(=O)N[C@@H](CC(C)C)C(=O)N[C@@H](CCC(N)=O)C(=O)N[C@H](C(=O)N[C@@H](Cc1ccc(O)cc1)C(=O)N1CCC[C@H]1C(=O)N[C@@H](CCCNC(=N)N)C(=O)N[C@H](C(=O)N[C@@H](CC(N)=O)C(=O)N[C@H](C(=O)NCC(=O)N[C@@H](CO)C(=O)N[C@@H](CCCCN)C(=O)N[C@@H](C)C(=O)N[C@@H](Cc1ccccc1)C(N)=O)C(C)C)[C@@H](C)O)[C@@H](C)O [compound 6] (H-ACRFGACVLGRLSQELHRLQTYPRTNVGSKAF-NH2; disulfide 2-7 (inferred)) | 93.9 | – | –
7 | CC[C@H](C)[C@@H]1NC(=O)[C@H](C)NC(=O)[C@H]([C@@H](C)O)NC(=O)[C@H](CC(=O)O)NC(=O)[C@@H](NC(=O)[C@H](C)N)CSSC[C@@H](C(=O)N[C@H](C(=O)N[C@@H](CC(C)C)C(=O)NCC(=O)N[C@@H](CCCNC(=N)N)C(=O)N[C@@H](CC(C)C)C(=O)N[C@@H](CO)C(=O)N[C@@H](CCC(N)=O)C(=O)N[C@@H](CCC(=O)O)C(=O)N[C@@H](CC(C)C)C(=O)N[C@@H](Cc2c[nH]cn2)C(=O)N[C@@H](CCCNC(=N)N)C(=O)N[C@@H](CC(C)C)C(=O)N[C@@H](CCC(N)=O)C(=O)N[C@H](C(=O)N[C@@H](Cc2ccc(O)cc2)C(=O)N2CCC[C@H]2C(=O)N[C@@H](CCCNC(=N)N)C(=O)N[C@H](C(=O)N[C@@H](CC(N)=O)C(=O)N[C@H](C(=O)NCC(=O)N[C@@H](CO)C(=O)N[C@@H](CCCCN)C(=O)N[C@@H](C)C(=O)N[C@@H](Cc2ccccc2)C(N)=O)C(C)C)[C@@H](C)O)[C@@H](C)O)C(C)C)NC1=O [compound 10] (H-ACDTAICVLGRLSQELHRLQTYPRTNVGSKAF-NH2; disulfide 2-7 (inferred)) | 96.8 | – | –
8 | CC(C)C[C@H](NC(=O)[C@H](CCCNC(=N)N)NC(=O)CNC(=O)[C@H](CC(C)C)NC(=O)[C@@H](NC(=O)[C@@H]1CSSC[C@H](NC(=O)[C@H](C)N)C(=O)N[C@@H](CC(=O)O)C(=O)N[C@@H]([C@@H](C)O)C(=O)N[C@@H](C)C(=O)N[C@@H](CO)C(=O)N1)C(C)C)C(=O)N[C@@H](CO)C(=O)N[C@@H](CCC(N)=O)C(=O)N[C@@H](CCC(=O)O)C(=O)N[C@@H](CC(C)C)C(=O)N[C@@H](Cc1c[nH]cn1)C(=O)N[C@@H](CCCNC(=N)N)C(=O)N[C@@H](CC(C)C)C(=O)N[C@@H](CCC(N)=O)C(=O)N[C@H](C(=O)N[C@@H](Cc1ccc(O)cc1)C(=O)N1CCC[C@H]1C(=O)N[C@@H](CCCNC(=N)N)C(=O)N[C@H](C(=O)N[C@@H](CC(N)=O)C(=O)N[C@H](C(=O)NCC(=O)N[C@@H](CO)C(=O)N[C@@H](CCCCN)C(=O)N[C@@H](C)C(=O)N[C@@H](Cc1ccccc1)C(N)=O)C(C)C)[C@@H](C)O)[C@@H](C)O [compound 2] (H-ACDTASCVLGRLSQELHRLQTYPRTNVGSKAF-NH2; disulfide 2-7 (inferred)) | 96.5 | – | –
